From patent US11667651B2, “Aminopyridine derivatives as phosphatidylinositol phosphate kinase inhibitors” (HiberCell, Inc., priority 2017, dated 2023)

Columns and labels:
Format in all cases: biochemical
[1] = target: T1, PIP4K2A (Homo sapiens, UniProt P48426); assay: ADP-glo kinase assay PIP4K 2A (Table 3); parameters: made in house; host or cells: E. coli; conditions: compounds listed under IC50 bins
T1 sequence (P48426 1-406): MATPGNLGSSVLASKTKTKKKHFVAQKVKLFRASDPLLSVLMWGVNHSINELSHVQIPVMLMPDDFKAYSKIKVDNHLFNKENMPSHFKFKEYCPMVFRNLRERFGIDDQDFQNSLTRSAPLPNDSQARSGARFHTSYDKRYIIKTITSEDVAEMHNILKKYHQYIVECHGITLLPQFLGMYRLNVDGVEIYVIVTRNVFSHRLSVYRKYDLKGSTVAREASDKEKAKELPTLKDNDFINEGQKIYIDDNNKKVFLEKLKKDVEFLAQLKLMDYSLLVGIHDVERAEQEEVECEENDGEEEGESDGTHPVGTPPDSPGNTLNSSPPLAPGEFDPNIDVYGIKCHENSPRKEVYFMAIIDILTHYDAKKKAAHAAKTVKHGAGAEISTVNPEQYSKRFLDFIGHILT
Procedure: Dilution series of the compounds were prepared in DMSO at 100 times the final assay concentration (n1=n0/3 in 10 points). The compounds were further diluted to three times the assay concentration in assay buffer (20 mM MOPS pH 7.2, 25 mM magnesium chloride, 0.005% Tween 20). 6 μL of the diluted compounds were added to a 384 well assay plate followed by 9 μL of a mix consisting of 4 nM PIP4K2A (full length protein, SignalChem) and 100 μM PI(5)P diC8 (Tebu-Bio). Enzyme and compounds were pre-incubated at room temperature for 15 minutes.
Then 3 μL of a solution containing 60 μM ATP (Promega) in assay buffer was added to the wells containing compound and enzyme and mixing was performed by pipetting several times. The reaction was incubated at room temperature for 1 h. Then 18 μL of ADP-Glo™ Reagent (Promega) was added to stop the kinase reaction and deplete the unconsumed ATP, mixing was performed by pipetting several times. The plate was incubated at room temperature for 40 minutes before addition of 36 μL of Kinase Detection Reagent (Promega) to convert ADP to ATP and introduce luciferase and luciferin to detect ATP. The reaction was incubated at room temperature for 40 minutes before the luminescence was measured in a in a Victor 3V 1420 multilabel counter (Perkin Elmer).
Percent inhibition of the compounds as compared to dimethyl sulfoxide treated control samples was calculated. Compound concentration versus percent inhibition were fitted to generate IC50 values. […]

[2] = target: T2, PIP4K2B (Homo sapiens, UniProt P78356); assay: Trans-FI P kinase assay PIP4K2B (Table 4); conditions: compounds listed under IC50 bins; read-out: Trans-FI P kinase assays: PIP4K2B IC50
T2 construct: made in house; host or cells: E. coli
T2 sequence (P78356 1-416): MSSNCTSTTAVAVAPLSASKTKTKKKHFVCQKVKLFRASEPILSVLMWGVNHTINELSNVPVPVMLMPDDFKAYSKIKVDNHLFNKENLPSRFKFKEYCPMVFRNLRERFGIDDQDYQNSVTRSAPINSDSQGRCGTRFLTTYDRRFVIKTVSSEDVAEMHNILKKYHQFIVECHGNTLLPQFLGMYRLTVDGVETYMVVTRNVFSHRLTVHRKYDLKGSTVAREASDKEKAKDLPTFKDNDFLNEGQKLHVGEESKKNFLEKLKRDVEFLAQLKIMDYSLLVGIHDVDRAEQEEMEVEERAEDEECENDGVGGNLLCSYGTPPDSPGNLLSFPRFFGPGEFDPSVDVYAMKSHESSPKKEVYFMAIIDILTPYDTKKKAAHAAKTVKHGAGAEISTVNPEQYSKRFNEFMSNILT
Description: GST tagged PIP4KtypeIIA and B enzymes were overexpressed in E. Coli and purified to >80% homogeneity. Phosphatidyl inositol-5-phosphate (PI5P, Cat. #850152, Avanti Polar Lipids Inc.) was used as the lipid substrate and phosphatidyl ethanolamine (DOPE 18:1, Cat. #850725, Avanti Polar Lipids Inc.) was used as the carrier lipid for assays. Ultrapure ATP and GTP was purchased from Bellbrooke Labs. ADP Glo reagents were obtained from Promega. Transcreener FI reagent was obtained from Bellbrooke labs.
GST-tagged PIP4KtypeIIB (3.4 μL, 2.77 mg/mL) was diluted to 5 mL using HNE buffer to yield 5× enzyme stock (25 nM)
Lipid Preparation: In a 10 mL pyrex glass vial, […] were suspended in 2.5 mL of HEPES buffer mix and 2.5 mL of H:E buffer. The contents were mixed and sonicated for 3 min to yield a translucent lipid stock.
Compound Preparation: Compounds were stored as 5 mM stocks in neat DMSO as room temperature in glass vials. 5 mM stocks were diluted to 2 mM and then serially diluted (3×) in neat DMSO in 96 well polypropylene plates. From the serially diluted stocks, 3 μL was delivered into 250 μL of 25% DMSO (in water) to generate 5× compound stocks. Typically, the highest compound conc. was 24 μM.
The assay volume was kept at 25 μL. To each well of the reaction plate, 10 μL of lipid stock (1:1 ratio PI5P:DOPE) was delivered. This was followed by the addition of 5 μL of compound in 25% DMSO. Then, to each well, 5 μL of 25 nM (5×) typeIIB enzyme was delivered. The contents were mixed well and incubated for 1 h at 27° C. After 1 h, reaction was initiated by adding 5 μL of 500 μM GTP and the contents were mixed well with a multi-channel pipetteman. The final concentration of the reagents are as follows: 50 mM HEPES, pH 7.3, 10 mM MgCl2, 20 mM NaCl, 0.01% v/v triton-X100, 5% DMSO, 100 μM GTP, 80 μM (2 μg) PI5P, 2 μg DOPE, and 5 nM PIP4KIIB Typically, the highest conc. of compounds was 4.8 μM and the lowest conc. was 0.
After 2 h, the reaction was quenched by adding 25 μL of transcreener FI reagent. The contents were incubated at rt for 1 h and the Fluorescence (Ex: 584 Em: 623) was read using Molecular Devices Paradigm plate reader. […] The blanks were averaged and subtracted from all other wells. Using a calibration curve, RFU was converted to μM GDP (product). IC50 was calculated by plotting the residual activity (expressed as % No inhibitor control) vs. log [Inh. conc.]

[3] = target: T1, PIP4K2A; assay: Kinase Assay PIP4K2 A (Table 2); parameters: 4 nM PIP4K2A (full length protein, SignalChem); purchased SignalChem; conditions: compounds listed under IC50 bins
How it was run: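 Full-length PIP4K2A (4 nM in the added mix, with 100 μM PI(5)P diC8) pre-incubated 15 min at RT with compounds (10-point, 3-fold series) in 20 mM MOPS pH 7.2, 25 mM MgCl2, 0.005% Tween 20. ATP added from a 60 μM solution, 1 h at RT; ADP-Glo luminescence, IC50 fitted from % inhibition versus DMSO.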

| IC50 [1] [nM] | IC50 [2] [nM] | IC50 [3] [nM] | Structure (SMILES) |
| --- | --- | --- | --- |
| 10 to 100 | 10 to 100 | – | CN(C)C/C=C/C(=O)Nc1ccc(C(=O)Nc2cncc(Nc3ccc(-c4ccc(N5CCCC5=O)cc4)cn3)c2)cc1 [Example 167, (E)-4-(4-(dimethylamino)but-2-enamido)-N-(5-((5-(4-(2-oxopyrrolidin-1-yl)phenyl)pyridin-2-yl)amino)pyridin-3-yl)benzamide] |
| 10 to 100 | 10 to 100 | – | CN(C)CCCC(=O)Nc1ccc(C(=O)Nc2cncc(Nc3ccc(-c4ccc(N5CCCC5=O)cc4)cn3)c2)cc1 [Example 168, 4-(4-(dimethylamino)butanamido)-N-(5-((5-(4-(2-oxopyrrolidin-1-yl)phenyl)pyridin-2-yl)amino)pyridin-3-yl)benzamide] |
| 10 to 100 | 10 to 100 | – | CN(C)C/C=C/C(=O)Nc1cccc(CCC(=O)Nc2cncc(Nc3ccc(-c4ccc(N5CCCC5=O)cc4)cn3)c2)c1 [Example 169, (E)-4-(dimethylamino)-N-(3-(3-oxo-3-((5-((5-(4-(2-oxopyrrolidin-1-yl)phenyl)pyridin-2-yl)amino)pyridin-3-yl)amino)propyl)phenyl)but-2-enamide] |
| 10 to 100 | 10 to 100 | – | CN(C)CCCC(=O)Nc1cccc(CCC(=O)Nc2cncc(Nc3ccc(-c4ccc(N5CCCC5=O)cc4)cn3)c2)c1 [Example 170, 4-(dimethylamino)-N-(3-(3-oxo-3-((5-((5-(4-(2-oxopyrrolidin-1-yl)phenyl)pyridin-2-yl)amino)pyridin-3-yl)amino)propyl)phenyl)butanamide] |
| 1 to 10 | 10 to 100 | – | CN(C)C/C=C/C(=O)NCC(=O)Nc1ccc(CN2CCN(c3cncc(Nc4ccc(-c5ccc(N6CCCC6=O)cc5)cn4)c3)C2=O)cc1 [Example 172, (E)-4-(dimethylamino)-N-(2-oxo-2-((4-((2-oxo-3-(5-((5-(4-(2-oxopyrrolidin-1-yl)phenyl)pyridin-2-yl)amino)pyridin-3-yl)imidazolidin-1-yl)methyl)phenyl)amino)ethyl)but-2-enamide] |
| 10 to 100 | 10 to 100 | – | O=C1CCCN1c1ccc(-c2ccc(Nc3cnc4c(c3)N3C(=O)CC[C@@H]3CO4)nc2)cc1F [Example 173, (R)-2-((5-(3-fluoro-4-(2-oxopyrrolidin-1-yl)phenyl)pyridin-2-yl)amino)-6,6a,7,8-tetrahydro-9H-pyrido[2,3-b]pyrrolo[1,2-d][1,4]oxazin-9-one] |
| 1 to 10 | 10 to 100 | – | Cc1cc(Nc2cnc3c(c2)N2C(=O)CC[C@H]2CO3)ncc1-c1ccc(N2CCCC2=O)cc1 [Example 176, (S)-2-((4-methyl-5-(4-(2-oxopyrrolidin-1-yl)phenyl)pyridin-2-yl)amino)-6,6a,7,8-tetrahydro-9H-pyrido[2,3-b]pyrrolo[1,2-d][1,4]oxazin-9-one] |
| 1 to 10 | 10 to 100 | – | CC(C)c1cc(Nc2cnc3c(c2)N2C(=O)CC[C@H]2CO3)ncc1-c1ccc(N2CCCC2=O)c(F)c1 [Example 181, (S)-2-((5-(3-fluoro-4-(2-oxopyrrolidin-1-yl)phenyl)-4-isopropylpyridin-2-yl)amino)-6,6a,7,8-tetrahydro-9H-pyrido[2,3-b]pyrrolo[1,2-d][1,4]oxazin-9-one] |
| 1 to 10 | 10 to 100 | – | O=C1CCCN1c1ccc(-c2cnc(Nc3cnc4c(c3)N3C(=O)CC[C@H]3CO4)cc2C2CC2)cc1F [Example 182, (S)-2-((4-cyclopropyl-5-(3-fluoro-4-(2-oxopyrrolidin-1-yl)phenyl)pyridin-2-yl)amino)-6,6a,7,8-tetrahydro-9H-pyrido[2,3-b]pyrrolo[1,2-d][1,4]oxazin-9-one] |
| 10 to 100 | 10 to 100 | – | O=C1CCCN1c1ccc(-c2cnc(Nc3cnc4c(c3)N3C(=O)CC[C@H]3CO4)nc2)cc1F [Example 187, (S)-2-((5-(3-fluoro-4-(2-oxopyrrolidin-1-yl)phenyl)pyrimidin-2-yl)amino)-6,6a,7,8-tetrahydro-9H-pyrido[2,3-b]pyrrolo[1,2-d][1,4]oxazin-9-one] |
| > 1000 | > 1000 | – | Cc1cc(-c2ccc(N3CCCC3=O)cc2)cnc1Nc1cnc2c(c1)N1C(=O)CC[C@H]1CO2 [Example 194, (S)-2-((3-methyl-5-(4-(2-oxopyrrolidin-1-yl)phenyl)pyridin-2-yl)amino)-6,6a,7,8-tetrahydro-9H-pyrido[2,3-b]pyrrolo[1,2-d][1,4]oxazin-9-one] |
| ≤ 1 | 1 to 10 | – | COc1nc(Nc2cnc3c(c2)N2C(=O)CC[C@H]2CO3)ncc1-c1ccc(N2CCCC2=O)cc1 [Example 195, (S)-2-((4-methoxy-5-(4-(2-oxopyrrolidin-1-yl)phenyl)pyrimidin-2-yl)amino)-6,6a,7,8-tetrahydro-9H-pyrido[2,3-b]pyrrolo[1,2-d][1,4]oxazin-9-one] |
| 10 to 100 | 1 to 10 | – | Cc1nc(Nc2cnc3c(c2)N2C(=O)CC[C@H]2CO3)ncc1-c1ccc(N2CCCC2=O)cc1 [Example 196, (S)-2-((4-methyl-5-(4-(2-oxopyrrolidin-1-yl)phenyl)pyrimidin-2-yl)amino)-6,6a,7,8-tetrahydro-9H-pyrido[2,3-b]pyrrolo[1,2-d][1,4]oxazin-9-one] |
| – | 10 to 100 | 10 to 100 | CC(C)Cn1cnnc1-c1ccc(-c2ccc(Nc3cnc4c(c3)N3C(=O)CC[C@H]3CO4)nc2)cc1 [Example 297, (S)-2-((5-(4-(4-isobutyl-4H-1,2,4-triazol-3-yl)phenyl)pyridin-2-yl)amino)-6,6a,7,8-tetrahydro-9H-pyrido[2,3-b]pyrrolo[1,2-d][1,4]oxazin-9-one] |
